Measurements reported in patent publication US20090181392A1, “Transgenic Zebrafish Models for Neurodegenerative Diseases” (priority 2001, published 2009).
“Also recorded” adds a separate entry of the source.

Test system: dopaminergic neurons in zebrafish embryos
Test: MPTP neurotoxicity and neuroprotection in zebrafish embryos, whole mount in situ hybridization with tyrosine hydroxylase probe
Type: in vivo, zebrafish (Danio rerio)
Settings: for protection of neurons from MPTP-induced damage: coculture/coincubation of embryos with MPTP 10 μg/mL (43 μM)
Procedure: Mating pairs of adult zebrafish are placed in mating cages in the evening. The following morning, eggs are collected from the bottom of the mating cage and fertile embryos are placed in fresh fish water. At the end of the day, (embryos should be at the late gastrulation stage) phenylthiourea (PTU, Sigma-Aldrich) is added to a final concentration of 0.003% to prevent formation of pigment. At approximately 24 hours past fertilization (hpf), embryos are transferred to a 24 or 96 well plate for treatment in different concentrations of neurotoxins. Zebrafish embryos at this stage in development have completed much of their brain development and primary neurogenesis (Kimmel, et al., 1995). Motor neurons and some dopaminergic neurons are detectable at this stage (Eisen, et al., 1986; Guo, et al., 1999).
Initial concentrations of neurotoxins, including MPTP, hydroxydopamine, NMDA and THA (all purchased from Sigma-Aldrich), are determined based on the concentrations administered to goldfish (Goping, et al., 1995) and that used in cultured spinal cord explant experiments (Rothstein, et al., 1993; Annis and Vaugn, 1998). One of skill can adjust the concentrations depending on the level of neuronal damage desired and the time frame for neuronal damage.
After embryos are secured in plates with lids, plates are transferred to an incubator, preset to 28.5° C., the optimal temperature for zebrafish development. At different time points (1, 2, and 3 days after treatment), untreated embryos and embryos treated with MPTP or hydroxydopamine are fixed in 4% paraformaldehyde and prepared for in situ hybridization and/or immunohistochemistry.
In situ hybridization is performed as described by Thisse, et al. (1993). A plasmid containing a partial cDNA sequence encoding tyrosine hydroxylase was obtained from A. Rosenthal (Guo, et al., 1999). An antisense RNA probe to this gene can be synthesized by in vitro transcription, incorporating digoxygenin-labeled UTP (Roche Molecular Biochemicals). Embryos are hybridized with probe overnight at 70 degrees in 50% formamide buffer. After several washes, embryos are incubated overnight with an antibody to digoxygenin conjugated to alkaline phosphatase (Roche Molecular Biochemicals). […]
This study is performed essentially as described above, except that neuroprotective drugs (levodopa, deprenyl, and D-AP5, Sigma-Aldrich) are added to the embryo cultures at selected time points, both concurrently with neurotoxins and after neurotoxins have exerted their effects. Initial concentrations are determined based on that used in goldfish and tissue culture expeirments. Again, results are measured by examination of neurons in both a qualitative and quantitative manner, as described above. […]

SMILES | effect on non-dopaminergic cell populations (MPTP 10 μg/mL (43 μM), 5 day old embryo, tyrosine hydroxylase in situ hybridization (FIG. 2)) | effect on dopaminergic neurons / dopaminergic populations (MPTP 10 μg/mL (about 43 μM), embryos soaked, 5 day old embryo, tyrosine hydroxylase in situ hybridization (FIG. 2)) | protection of neurons from MPTP-induced damage | protection of neurons from MPTP-induced damage (listed as deprenyl)
CN1CC=C(c2ccccc2)CC1 [MPTP, 1-methyl-4-phenyl-1,2,3,6-tetrahydropyridine] | unchanged | destroys dopaminergic populations; also recorded: significantly reduced | – | –
C#CCN(C)[C@H](C)Cc1ccccc1 [L-deprenyl] | – | – | MPTP-induced damage can be prevented | protects neurons
